The values below come from patent publication US20110237538A1, “TREATMENT OF LYSOSOMAL STORAGE DISORDERS AND OTHER PROTEOSTATIC DISEASES” (SUMMIT CORPORATION PLC, priority 2008, published 2011).

Bounds are passed on as bounds.

The experiment has as its target T1, wild type (wt) lysosomal alpha-glucosidase (Homo sapiens, UniProt P10253).
T1 construct: The lysates were used as a source for wild type (wt) lysosomal alpha-glucosidase; endogenous in cells; host or cells: HL60 (ECACC No. 98070106) lysate
The experiment in a line: alpha-glucosidase activity assay in HL60 lysate (4MU-α-D-glc).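 Also: fluorometric rate of 4MU product release read at 360 nm excitation and 450 nm emission, reactions run at 37 °C in citric phosphate buffer.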 It is filed as biochemical. As to conditions: at a concentration of 100 uM, 0.5 mM 4MU-α-D-glc, pH 4.5.
Broadly, the inhibition is the relative decrease from the control value, in per cent. `OC[C@H]1[C@H](O)[C@@H](O)CN1Cc1ccccc1` [Compound 500, (2S,3S,4S)-1-benzyl-2-(hydroxymethyl)pyrrolidine-3,4-diol]: the inhibition at 100 µM was more than 50%.
`CCCCN1CCC[C@@H](CO)C1` [Compound 741, (R)-(1-butylpiperidin-3-yl)methanol] had an inhibition at 100 µM of more than 50%.
Molecule `O=C1N[C@H](CO)[C@H](O)[C@@H](O)[C@@H]1O` [Compound 446, (3S,4R,5S,6R)-3,4,5-trihydroxy-6-(hydroxymethyl)piperidin-2-one] displayed an inhibition at 100 µM of more than 50%.
For `C[C@H]1N[C@H](CO)[C@@H](O)[C@H](O)[C@H]1O` [Compound 51, (2R,3R,4R,5S,6R)-2-(hydroxymethyl)-6-methylpiperidine-3,4,5-triol] the value was more than 50%; for `O[C@H]1[C@H](O)[C@@H](O)CN2C[C@H](O)[C@@H](O)[C@H]12` [Compound 352, (1S,2S,6S,7R,8R,8aR)-octahydroindolizine-1,2,6,7,8-pentaol], more than 50%; for `OC[C@@H]1[C@@H](O)[C@H](O)[C@@H](O)CN1CCN1CCOCC1` [Compound 509, (2R,3R,4R,5S)-2-(hydroxymethyl)-1-(2-morpholinoethyl)piperidine-3,4,5-triol], more than 50%.
For `CCCC[C@H]1N[C@H](CO)[C@@H](O)[C@@H](O)[C@@H]1O` [Compound 488, (2R,3R,4S,5R,6R)-2-butyl-6-(hydroxymethyl)piperidine-3,4,5-triol] the value was more than 50%; for `C[N+]1(C)C[C@@H](O)[C@H](O)[C@H]1C(=O)[O-]` [Compound 80, (2S,3R,4R)-3,4-dihydroxy-1,1-dimethylpyrrolidinium-2-carboxylate], more than 50%; for `OC[C@@H]1[C@@H](O)[C@H](O)[C@@H](O)CN1Cc1ccccc1` [Compound 510, (2R,3R,4R,5S)-1-benzyl-2-(hydroxymethyl)piperidine-3,4,5-triol], more than 50%.
`OC[C@@H]1N[C@@H](CO)[C@H](O)[C@H]1O` [Compound 729, (2S,3S,4S,5S)-2,5-bis(hydroxymethyl)pyrrolidine-3,4-diol] gave an inhibition at 100 µM of more than 50%.
Take `OCCCCN1C[C@H](O)[C@@H](O)[C@H](O)[C@H]1CO` [Compound 276, (2R,3R,4R,5S)-1-(4-hydroxybutyl)-2-(hydroxymethyl)piperidine-3,4,5-triol]: the inhibition at 100 µM is more than 50%.
In the case of `CCCCN1C[C@H](O)[C@@H](O)[C@H](O)[C@H]1CO` [Compound 118, (2R,3R,4R,5S)-1-butyl-2-(hydroxymethyl)piperidine-3,4,5-triol], the inhibition at 100 µM was more than 50%.
For `OCC1OC(O[C@H]2CN3C[C@H](O)[C@@H](O)[C@H](O)[C@H]3[C@H]2O)C(O)C(O)C1O` (stereo partly drawn) [Compound 41, (1R,2S,6S,7R,8R,8aS)-2-(3,4,5-trihydroxy-6-(hydroxymethyl)tetrahydro-2H-pyran-2-yloxy)octahydroindolizine-1,6,7,8-tetraol] the value was more than 50%.
For `C[C@@H]1CC[C@@H]2[C@H](O)[C@H](O)[C@@H](CO)N12` [Compound 150, (1S,2R,3R,5R,7aR)-3-(hydroxymethyl)-5-methylhexahydro-1H-pyrrolizine-1,2-diol] the value was more than 50%; for `C[C@@H]1N[C@@H](CO)[C@H](O)[C@H]1O` [Compound 300, (2S,3S,4S,5S)-2-(hydroxymethyl)-5-methylpyrrolidine-3,4-diol], more than 50%.
Take `OCC1OC(OC[C@H]2NC[C@H](O)[C@@H](O)[C@@H]2O)C(O)C(O)C1O` (stereo partly drawn) [Compound 78, (2R,3R,4R,5S)-2-((3,4,5-trihydroxy-6-(hydroxymethyl)tetrahydro-2H-pyran-2-yloxy)methyl)piperidine-3,4,5-triol]: the inhibition at 100 µM was more than 50%.
As to `CC[C@@H]1N[C@@H](CO)[C@H](O)[C@@H](O)[C@@H]1O` [Compound 23, (2S,3R,4S,5S,6S)-2-ethyl-6-(hydroxymethyl)piperidine-3,4,5-triol], the inhibition at 100 µM was more than 50%.
`OC[C@@H]1NC[C@@H](O)[C@H](O)[C@H]1O` [Compound 221, (2S,3S,4S,5R)-2-(hydroxymethyl)piperidine-3,4,5-triol]: the inhibition at 100 µM was more than 50%.
For `OC[C@@H]1[C@@H](O)[C@H](O)[C@H]2[C@H](O)[C@@H](O)CN21` [Compound 137, (1R,2R,3R,6S,7S,7aR)-3-(hydroxymethyl)hexahydro-1H-pyrrolizine-1,2,6,7-tetraol] the value was more than 50%.
For `OC[C@@H]1[C@@H](O)[C@H](O)[C@@H](CO)N1Cc1ccc(-c2ccccc2)cc1` [Compound 558, (2R,3R,4R,5R)-1-(biphenyl-4-ylmethyl)-2,5-bis(hydroxymethyl)pyrrolidine-3,4-diol] the value was more than 50%.
For `OCC1OC(O[C@H]2[C@H](O)[C@@H](CO)N[C@@H]2CO)C(O)C(O)C1O` (stereo partly drawn) [Compound 79, 2-((2R,3R,4R,5R)-4-hydroxy-2,5-bis(hydroxymethyl)pyrrolidin-3-yloxy)-6-(hydroxymethyl)tetrahydro-2H-pyran-3,4,5-triol] the value was more than 50%; for `CCCC[C@@H]1N[C@@H](CO)[C@H](O)[C@H]1O` [Compound 728, (2S,3S,4S,5S)-2-butyl-5-(hydroxymethyl)pyrrolidine-3,4-diol], more than 50%.
In the case of `O=C(O)CN1C[C@H](O)[C@@H](O)[C@H](O)[C@H]1CO` [Compound 214, 2-((2R,3R,4R,5S)-3,4,5-trihydroxy-2-(hydroxymethyl)piperidin-1-yl)acetic acid], the inhibition at 100 µM was more than 50%.
For `CCCCN1C[C@H](O)[C@H](O)[C@@H]1[C@@H](O)[C@H](O)[C@H](O)CO` [Compound 531, (1R,2S,3R)-1-((2R,3R,4S)-1butyl-3,4-dihydroxypyrrolidin-2-yl)butane-1,2,3,4-tetraol] the value was more than 50%; for `C[C@H]1NC[C@H](O)[C@@H](O)[C@@H]1O` [Compound 388, (2R,3R,4R,5S)-2-methylpiperidine-3,4,5-triol], more than 50%; for `COCCOCCN1C[C@H](O)[C@@H](O)[C@H](O)[C@H]1CO` [Compound 725, (2R,3R,4R,5S)-2-(hydroxymethyl)-1-(2-(2-methoxyethoxy)ethyl)piperidine-3,4,5-triol], more than 50%.
For `CCCC(=O)O[C@H]1CN2CC[C@H](O)C2[C@@H](O)[C@@H]1O` (stereo partly drawn) [Compound 46, (1S,6S,7S,8R)-1,7,8-trihydroxyoctahydroindolizin-6-yl butyrate] the value was more than 50%; for `CN1[C@H](CO)[C@@H](O)[C@H](O)[C@H]1CO` [Compound 515, (2R,3R,4R,5R)-2,5-bis(hydroxymethyl)-1-methylpyrrolidine-3,4-diol], more than 50%; for `C[C@@]1(CO)NC[C@H](O)[C@H]1O` [Compound 501, (2S,3S,4S)-2-(hydroxymethyl)-2-methylpyrrolidine-3,4-diol], more than 50%.
The figure for `OC[C@@H](O)[C@@H]1NC[C@](O)(CO)[C@H]1O` [Compound 179, (2S,3S,4S)-2-((S)-1,2-dihydroxyethyl)-4-(hydroxymethyl)pyrrolidine-3,4-diol] is more than 50%.
As for `CC[C@@H]1N[C@@H](CO)[C@H](O)[C@H]1O` [Compound 732, (2S,3S,4S,5S)-2-ethyl-5-(hydroxymethyl)pyrrolidine-3,4-diol], the inhibition at 100 µM was more than 50%.
